Where “and” joins values, the source holds several entries; their conditions need not be identical. Identical values can stand only once.
System: cos-7 cells
Assay: DNA transfection: luciferase expression relative to Lipofectamine 2000
Type: cell-based
Details: luciferase assay after 48 hours; for Luciferase expression as a percentage of that achieved using Lipofectamine 2000: 300 ng Luciferase DNA per well; for % of the luciferase activity obtained from the use of Lipofectamine 2000: 300 ng DNA per well
Experimental: 14,000 cos-7 cells (ATCC, Manassas, Va.) were seeded into each well of a solid white or clear 96 well plate (Corning-Costar, Kennebunk, Me.) and allowed to attached overnight in growth medium, composed of: 500 ml phenol red minus DMEM, 50 ml heat inactivated FBS, 5 ml penicillin/streptomycin (Invitrogen, Carlsbad, Calif.).
A small liquot of lipid was tranferred to an Eppendorf tube. Based on the mass of the lipid in the tube, sterile 25 mM sodium acetate buffer was added to each tube to yield a concentration of 60 mg/ml. The resulting mixture was vortexed for approximately 20 minutes until the lipid was fully dissolved. DNA was prepared based on 300 ng DNA per well of a 96-well plate. 291 μg of Lc DNA was dissolved in 9210 μl of 25 mM sodium acetate buffer. Aliquots of 30 μl of DNA solution were added to each well expect for the last column which was reserved for the Lipo2000 standard. For the last column of the plate, 61 μg of DNA was added to 1940 μl Optimem. 150 μl of media/Optimem was added to each well of plates. 50 μl of lipid solution was aliquoted into wells of robot plate. The following amounts were aliquoted to obtain the correct ratios of DNA to lipid:
In quadruplicate, 30 μl of lipid was aliquoted onto DNA in four rows for each ratio. For the Lipo2000 control (2.5 w/w ratio to DNA), 152.5 μg of Lipo sample was aliquoted into 1847.5 μl of Optimem. 30 μl of this solution was aliquoted onto DNA in the Optimem in the last columns of each plate. The plates were incubated for 15-20 minutes, and then 36.5 μl of lipid+DNA complexes was transferred into 150 μl of media/Optimem, then add to cells. The media was aspirated off the cells, and 105 μl of the lipid/DNA/media/Optimem solution was added to the cells. The luciferase assay was performed after 48 hours.
Luminescence was analyzed using bright-glo assay kits (Promega). Briefly, 100 μl of bright-glo solution was added to each well of the microtiter plate containing media and cells. Luminescence was measured using a Mithras Luminometer (Berthold, Oak Ridge, Tenn.). In some cases, a neutral density filter (Chroma, Brattleboro, Vt.) was used to prevent saturation of the luminometer. A standard curve for Luciferase was generated by titration of Luciferase enzyme (Promega) into growth media in white microtiter plates. Luciferase in ng per well are calculated for each of the lipids at 2.5 w/w, 5 w/w, 10 w/w, 15 w/w, 20 w/w, and 25 w/w lipid to DNA based on the standard curve.
The table below summarizes the data as a % of the luciferase activity obtained from the use of Lipofectamine 2000. The table indicates the best lipids for transfection.

SMILES | Luciferase expression as a percentage of that achieved using Lipofectamine 2000 (lipid/DNA 2.5 w/w) | Luciferase expression as a percentage of that achieved using Lipofectamine 2000 (lipid/DNA 5 w/w) [%] | Luciferase expression as a percentage of that achieved using Lipofectamine 2000 (lipid/DNA 10 w/w) [%] | Luciferase expression as a percentage of that achieved using Lipofectamine 2000 (lipid/DNA 15 w/w) | Luciferase expression as a percentage of that achieved using Lipofectamine 2000 (lipid/DNA 20 w/w) | Luciferase expression as a percentage of that achieved using Lipofectamine 2000 (lipid/DNA 25 w/w) | % of the luciferase activity obtained from the use of Lipofectamine 2000 (2.5 w/w lipid to DNA) [%] | % of the luciferase activity obtained from the use of Lipofectamine 2000 (5 w/w lipid to DNA) [%] | % of the luciferase activity obtained from the use of Lipofectamine 2000 (10 w/w lipid to DNA) [%] | % of the luciferase activity obtained from the use of Lipofectamine 2000 (15 w/w lipid to DNA) [%] | % of the luciferase activity obtained from the use of Lipofectamine 2000 (20 w/w lipid to DNA) [%] | % of the luciferase activity obtained from the use of Lipofectamine 2000 (25 w/w lipid to DNA) [%]
CCCCCCCCCCCCOC(=O)CCN(CCC(=O)OCCCCCCCCCCCC)CCN1CCOCC1 [LD90] | 0.5% and 0.4% | 0.4 | 0.4 | 0.6% and 0.4% | 0.4% and 0.5% | 0.4% and 0.5% |  |  |  |  |  | 
CCCCCCCCCCCCOC(=O)CCN(CCCN1CCOCC1)CCC(=O)OCCCCCCCCCCCC [LD91] | 0.2% | 0.2 | 0.2 | 0.2% | 0.2% | 0.2% |  |  |  |  |  | 
CCCCCCCCCCCCOC(=O)CCN(CCCn1ccnc1)CCC(=O)OCCCCCCCCCCCC [LD93] | 1.8% | 4.2 | 3.9 | 24.6% | 15.8% | 10.8% |  |  |  |  |  | 
CCCCCCCCCCCCOC(=O)CCN(CCC(=O)OCCCCCCCCCCCC)CCc1c[nH]cn1 [LD94] | 1.5% | 5.9 | 2.0 | 8.5% | 9.2% | 7.3% |  |  |  |  |  | 
CCCCCCCCCCCCOC(=O)CCN(C)CCN(CCC(=O)OCCCCCCCCCCCC)CCC(=O)OCCCCCCCCCCCC [LD95] | 1.2% | 19.5 | 3.6 | 9.1% | 9.4% | 5.9% |  |  |  |  |  | 
CCCCCCCCCCCCOC(=O)CCN(CCO)CCN(CCO)CCC(=O)OCCCCCCCCCCCC [LD103] | 11.6% | 17.2 | 24.4 | 27.1% | 12.3% | 6.6% |  |  |  |  |  | 
CCCCCCCCCCCCCOC(=O)CCN(CCOCCO)CCC(=O)OCCCCCCCCCCCCC [LE31] | 1.0% | 1.0 | 0.9 | 2.5% | 2.9% | 9.5% |  |  |  |  |  | 
CCCCCCCCCCCCCOC(=O)CCN(CC)CCCN(CC)CCC(=O)OCCCCCCCCCCCCC [LE64] | 0.1% | 0.1 | 0.1 | 0.0% | 0.1% | 0.1% |  |  |  |  |  | 
CCCCCCCCCCCCCOC(=O)CCN(CCC(=O)OCCCCCCCCCCCCC)CCN(CCO)CCO [LE86] |  |  |  |  |  |  | 31.1 | 22.7 | 22.6 | 2.5 | 0.0 | 0.0

— US9006487B2, “Amine-containing lipids and uses thereof” (Massachusetts Institute of Technology, priority 2005, dated 2015)
